From US9060991B2, “Use of GLP-1 analogues for the treatment of disorders associated with dysfunctional synaptic transmission” (Innovation Ulster Limited, priority 2007, dated 2015)
Where no end group is shown, it is not given here.

Tests used:
Assay type in all cases: in vivo, Male Wistar rats
[1] = tested on: long-term potentiation of synaptic transmission (EPSP slope, CA1 region of hippocampus); assay: LTP in hippocampal CA1 after icv GLP-1 peptides, weak HFS protocol; conditions: 15 nmol in 5 μl icv, LTP induced 30 min post-injection (time not given for FIG. 3A)
From the text: (§1) Male Wistar rats weighing 220-280 g were anaesthetised with urethane (ethyl carbamate, 1.8 g/kg, intraperitoneal, (i.p.)) for the duration of all experiments. The animals had been obtained from Harlan, United Kingdom (UK). A cannula (22 gauge, 0.7 mm outer diameter, 11 mm in length, Bilaney, Kent, UK) was implanted (1.5 mm anterior to bregma, 0.5 mm lateral to the midline and 3.55 mm ventral) into the left hemisphere for intracerebroventricular (icv) injections. Electrodes (tungsten with Teflon® coating, Bilaney, Kent, UK) were implanted unilaterally 3.4 mm posterior and 2.5 mm lateral to the midline, and the stimulating electrode 4.2 mm posterior to bregma and 3.8 mm lateral to the midline. […] Recordings of EPSPs were made from the stratum radiatum in the CA1 region of the right hippocampal hemisphere in response to stimulation of the Schaffer collateral/commissural pathway. Field EPSPs were recorded on a computerised stimulating and recording unit (PowerLab, ADI instruments, UK) in which the trigger threshold was adjustable. The triggered unit activated a constant current stimulus isolation unit (Neurolog, UK). The data acquisition system was triggered simultaneously to record all events. Sampling speed was at 20 kHz recording of EPSPs.
(§2) The ‘strong’ high frequency stimulation (HFS) protocol for inducing long-term potentiation (LTP) consisted of 3 trains of 200 stimuli, inter-stimulus interval 5 ms (200 Hz), inter-train interval 2 sec. […] The ‘weak’ HFS protocol for inducing LTP consisted of 10 trains of 10 stimuli, inter-stimulus interval 5 ms (200 Hz). The strong HFS was used to test the effects of peptides that impair LTP (beta-amyloid), and the weak HFS was used to test peptides that facilitate LTP. In this form of LTP, the control group is not potentiated at a maximal rate, and LTP can decay slowly over time. Stimulation intensity was 70% of the maximum EPSP. LTP was measured as % of baseline EPSP slope recorded over a 30 min period prior to drug injection and 60 min prior to application of HFS. Baseline was recorded for 30 min and averaged. This value was taken as 100% of the EPSP slope and all recoded values were normalised to this baseline value. All experiments were licensed according to UK Home Office regulations, and the “Principles of laboratory animal care” (NIH publication No. 86-23, revised 1985) were followed.
Beta-amyoid (25-35) and other peptides used in this study were synthesised on an Applied Biosystems automated peptides synthesiser (Model 432A) using standard solid-phase Fmoc protocols. Peptides were judged pure by reversed phase HPLC on a waters Millenium 2010 chromatography system, and peptides were subsequently characterised using matrix-assisted laser desorption/ionisation time of flight (MALDI-TOF) mass spectrometry as described previously (Gengler et al., 2006; Hölscher et al., 2007). Peptides were stored in dry form and dissolved in double distilled water before the experiments. 5 μl of peptides solution was injected icv.
(§3) Each group consisted of 6 animals. Data were analysed using a repeated measures two-way ANOVA, or a repeated measures three level two-way ANOVA with post-hoc tests to discriminate between groups (PRISM, GraphPad software Inc; USA). […]
Male Wistar rats were icv injected with either vehicle (Control,) or 15 nmol Val(8)GLP-1 (♦). LTP was induced 30 min post-injection using the HFS (weak protocol), and the change in EPSP assessed and graphed to represent the change in LTP (FIG. 3B). […]

[2] = tested on: long-term potentiation of synaptic transmission (EPSP slope, CA1 region of hippocampus); assay: Val(8)GLP-1 against beta-amyloid(25-35)-induced impairment of LTP; conditions: for impairing effect of beta-amyloid on LTP: LTP induced 15 min post-βA injection
From the text: as §1, §2
Beta-amyoid (25-35) and other peptides used in this study were synthesised on an Applied Biosystems automated peptides synthesiser (Model 432A) using standard solid-phase Fmoc protocols. […]
as §3

[3] = tested on: long-term potentiation of synaptic transmission (EPSP slope, CA1 region of hippocampus); assay: LTP in hippocampal CA1 after icv beta-amyloid(25-35), strong HFS protocol; conditions: LTP induced 15 min post-injection, control = scrambled peptide
From the text: Male Wistar rats weighing 220-280 g were anaesthetised with urethane (ethyl carbamate, 1.8 g/kg, intraperitoneal, (i.p.)) for the duration of all experiments. The animals had been obtained from Harlan, United Kingdom (UK). A cannula (22 gauge, 0.7 mm outer diameter, 11 mm in length, Bilaney, Kent, UK) was implanted (1.5 mm anterior to bregma, 0.5 mm lateral to the midline and 3.55 mm ventral) into the left hemisphere for intracerebroventricular (icv) injections. Electrodes (tungsten with Teflon® coating, Bilaney, Kent, UK) were implanted unilaterally 3.4 mm posterior and 2.5 mm lateral to the midline, and the stimulating electrode 4.2 mm posterior to bregma and 3.8 mm lateral to the midline. […] Field EPSPs were recorded on a computerised stimulating and recording unit (PowerLab, ADI instruments, UK) in which the trigger threshold was adjustable. […]
The ‘strong’ high frequency stimulation (HFS) protocol for inducing long-term potentiation (LTP) consisted of 3 trains of 200 stimuli, inter-stimulus interval 5 ms (200 Hz), inter-train interval 2 sec. […] LTP was measured as % of baseline EPSP slope recorded over a 30 min period prior to drug injection and 60 min prior to application of HFS. Baseline was recorded for 30 min and averaged. […]
LTP was induced 15 min post-injection using the HFS (strong protocol), and the change in EPSP assessed and graphed to represent the change in LTP (FIG. 2). […]

## Pro(9)GLP-1: analogue of human GLP-1 with Pro at position 9, SEQ ID NO: 5 (HAPGTFTSDVSSYLEGQAAKEFIAWLVKGR; Synthetic peptide analogue derived from human GLP-1)
[1]
  effect on LTP (change in EPSP) versus control: enhanced long-term potentiation (LTP) compared with control

## GLP-1(9-36)amide [reference compound]
[1]
  effect on LTP (change in EPSP) versus control: no difference between the GLP-1(9-36)amide group and the control group

## βA(25-35): beta-amyloid fragment 25-35, peptide that impairs LTP (GSNKGAIIGLM; Amyloid-beta protein 42; UniProt P05067 696-706, looked up, fragment)
[2]; beta-amyloid(25-35) alone, 100 nmol icv, LTP induced 15 min post-injection, FIG. 4A-4C experiments
  effect on LTP (change in EPSP) versus vehicle control: difference between the beta-amyloid(25-35) group and control
[3]; 10 nmol icv
  effect on LTP (change in EPSP) versus control: difference between the 10 nmol group and control
[3]; 100 nmol icv
  effect on LTP (change in EPSP) versus control: difference between the 100 nmol group and control

## GLP-1(7-36)amide: the natural hormone GLP-1(7-36)amide (HAEGTFTSDVSSYLEGQAAKEFIAWLVKGR-NH2; listed as Homo sapiens) [reference compound]
[1]
  effect on LTP (change in EPSP) versus control: difference between the GLP-1(7-36)amide group and control

## Asp(7)GLP-1: analogue of human GLP-1 with Asp at position 7, SEQ ID NO: 3 (DAEGTFTSDVSSYLEGQAAKEFIAWLVKGR; Synthetic peptide analogue derived from human GLP-1)
[1]
  effect on LTP (change in EPSP) versus control: enhanced long-term potentiation (LTP) compared with control

## Val(8)GLP-1: analogue of human GLP-1 with Val at position 8, SEQ ID NO: 4
[2]; Val(8)GLP-1 15 nmol icv 15 min before beta-amyloid(25-35) 100 nmol icv
  impairing effect of beta-amyloid on LTP: not significantly affected, but a trend became visible
[2]; Val(8)GLP-1 15 nmol icv 30 min before beta-amyloid(25-35) 100 nmol icv
  impairing effect of beta-amyloid on LTP: completely reversed
[2]; Val(8)GLP-1 15 nmol icv simultaneously with beta-amyloid(25-35) 100 nmol icv
  impairing effect of beta-amyloid on LTP: not affected
[1]
  effect on LTP (change in EPSP) versus control: can enhance the induction of LTP
